From ChEMBL document CHEMBL3621077, “Synthesis of hybrid anticancer agents based on kinase and histone deacetylase inhibitors” (Medchemcomm, 2014)
Activity calls are given as the source filed them. No cut-off for these calls is given here.

What was measured:
SNB-19 = assay: Cytotoxicity against human SNB19 cells; assay type: functional
OVCAR-8 = assay: Cytotoxicity against human OVCAR8 cells; assay type: functional
A549 = assay: Cytotoxicity against human A549 cells; assay type: functional
U-251 = assay: Cytotoxicity against human U251 cells; assay type: functional
DU-145 = assay: Cytotoxicity against human DU145 cells; assay type: functional
RXF 393 = assay: Cytotoxicity against human RXF393 cells; assay type: functional
IGROV-1 = assay: Cytotoxicity against human IGROV1 cells; assay type: functional
NCI-H460 = assay: Cytotoxicity against human NCI-H460 cells; assay type: functional
Histone deacetylase = assay type: cell-based, Homo sapiens; conditions: hela
[1] = target: T1, Protein deacetylase HDAC6 (Homo sapiens, UniProt Q9UBN7); assay: Inhibition of HDAC6 (unknown origin); conditions: read-out: IC50
T1 sequence (Q9UBN7 whole entry): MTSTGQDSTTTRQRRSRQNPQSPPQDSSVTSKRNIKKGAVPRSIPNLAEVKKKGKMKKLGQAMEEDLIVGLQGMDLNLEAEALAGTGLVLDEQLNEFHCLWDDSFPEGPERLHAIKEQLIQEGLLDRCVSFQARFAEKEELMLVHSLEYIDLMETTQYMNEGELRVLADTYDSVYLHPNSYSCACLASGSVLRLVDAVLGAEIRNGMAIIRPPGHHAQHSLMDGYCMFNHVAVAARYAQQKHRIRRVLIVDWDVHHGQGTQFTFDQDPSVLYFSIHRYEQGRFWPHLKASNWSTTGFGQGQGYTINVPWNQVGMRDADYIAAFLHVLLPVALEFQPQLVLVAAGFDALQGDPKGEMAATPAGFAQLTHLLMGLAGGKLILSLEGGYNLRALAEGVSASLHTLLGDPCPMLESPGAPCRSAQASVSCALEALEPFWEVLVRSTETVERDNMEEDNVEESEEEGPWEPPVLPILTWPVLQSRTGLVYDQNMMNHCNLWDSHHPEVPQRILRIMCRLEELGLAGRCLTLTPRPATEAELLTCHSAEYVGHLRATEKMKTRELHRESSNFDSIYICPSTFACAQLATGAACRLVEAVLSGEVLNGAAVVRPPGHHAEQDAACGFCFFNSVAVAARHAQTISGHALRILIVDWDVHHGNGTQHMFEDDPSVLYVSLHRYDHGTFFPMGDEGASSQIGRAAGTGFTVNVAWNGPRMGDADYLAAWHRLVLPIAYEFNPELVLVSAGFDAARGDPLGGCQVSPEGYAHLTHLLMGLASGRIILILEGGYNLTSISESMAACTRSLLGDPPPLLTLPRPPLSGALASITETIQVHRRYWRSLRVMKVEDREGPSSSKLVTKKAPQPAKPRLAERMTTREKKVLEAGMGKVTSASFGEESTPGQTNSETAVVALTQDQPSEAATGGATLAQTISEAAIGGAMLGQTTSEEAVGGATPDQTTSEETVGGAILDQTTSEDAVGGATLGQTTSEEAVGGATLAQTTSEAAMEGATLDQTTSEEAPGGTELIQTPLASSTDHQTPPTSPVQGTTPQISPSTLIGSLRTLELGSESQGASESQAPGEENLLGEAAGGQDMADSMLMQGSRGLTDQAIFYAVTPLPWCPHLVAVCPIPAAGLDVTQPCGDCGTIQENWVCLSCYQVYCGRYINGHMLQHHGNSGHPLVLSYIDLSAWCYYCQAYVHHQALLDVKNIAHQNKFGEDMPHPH

MDA-MB-231 [2] = assay: Cytotoxicity against human MDA-MB-231 cells assessed as reduction of cell viability at 200 uM after 72 hrs by MTT assay relative to control; assay type: functional
HCT-15 = assay: Cytotoxicity against human HCT15 cells; assay type: functional
HOP-62 = assay: Cytotoxicity against human HOP62 cells; assay type: functional
[3] = target: Mast/stem cell growth factor receptor Kit (Homo sapiens) (UniProt P10721); assay: Inhibition of c-kit (unknown origin) at 10 uM
Mast/stem cell growth factor receptor Kit (Homo sapiens), sequence (P10721 whole entry): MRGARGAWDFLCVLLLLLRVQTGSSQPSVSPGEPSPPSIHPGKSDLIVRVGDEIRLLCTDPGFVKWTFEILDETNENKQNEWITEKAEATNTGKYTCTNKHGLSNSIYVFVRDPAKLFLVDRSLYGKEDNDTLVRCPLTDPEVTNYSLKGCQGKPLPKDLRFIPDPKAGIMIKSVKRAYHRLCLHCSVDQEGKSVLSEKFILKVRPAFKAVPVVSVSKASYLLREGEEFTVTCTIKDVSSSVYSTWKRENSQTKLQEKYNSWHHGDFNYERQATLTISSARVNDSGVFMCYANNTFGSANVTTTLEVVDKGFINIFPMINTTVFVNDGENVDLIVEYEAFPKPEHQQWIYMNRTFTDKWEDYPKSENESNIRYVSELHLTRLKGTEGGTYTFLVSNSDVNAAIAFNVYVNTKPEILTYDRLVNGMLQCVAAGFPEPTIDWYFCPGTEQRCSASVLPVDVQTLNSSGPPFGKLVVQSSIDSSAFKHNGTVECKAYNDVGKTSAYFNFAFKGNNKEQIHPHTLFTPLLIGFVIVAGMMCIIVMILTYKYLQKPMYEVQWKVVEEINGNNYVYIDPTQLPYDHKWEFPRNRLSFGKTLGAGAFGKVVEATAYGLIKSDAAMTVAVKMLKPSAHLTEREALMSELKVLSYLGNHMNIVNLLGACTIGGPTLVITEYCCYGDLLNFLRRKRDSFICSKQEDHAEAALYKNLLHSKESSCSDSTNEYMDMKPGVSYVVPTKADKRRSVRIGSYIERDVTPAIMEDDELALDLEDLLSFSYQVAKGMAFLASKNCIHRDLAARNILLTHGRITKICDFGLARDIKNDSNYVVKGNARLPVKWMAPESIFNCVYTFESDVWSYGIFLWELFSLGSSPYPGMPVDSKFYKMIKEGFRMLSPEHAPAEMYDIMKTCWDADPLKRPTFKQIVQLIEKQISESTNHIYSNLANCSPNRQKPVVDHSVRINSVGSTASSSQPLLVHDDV

LOX IMVI = assay: Cytotoxicity against human LOXIMVI cells; assay type: functional
[4] = target: Platelet-derived growth factor receptor alpha (Homo sapiens, UniProt P16234); assay: Inhibition of PDGFRa (unknown origin); conditions: read-out: IC50
Platelet-derived growth factor receptor alpha, sequence (P16234 whole entry): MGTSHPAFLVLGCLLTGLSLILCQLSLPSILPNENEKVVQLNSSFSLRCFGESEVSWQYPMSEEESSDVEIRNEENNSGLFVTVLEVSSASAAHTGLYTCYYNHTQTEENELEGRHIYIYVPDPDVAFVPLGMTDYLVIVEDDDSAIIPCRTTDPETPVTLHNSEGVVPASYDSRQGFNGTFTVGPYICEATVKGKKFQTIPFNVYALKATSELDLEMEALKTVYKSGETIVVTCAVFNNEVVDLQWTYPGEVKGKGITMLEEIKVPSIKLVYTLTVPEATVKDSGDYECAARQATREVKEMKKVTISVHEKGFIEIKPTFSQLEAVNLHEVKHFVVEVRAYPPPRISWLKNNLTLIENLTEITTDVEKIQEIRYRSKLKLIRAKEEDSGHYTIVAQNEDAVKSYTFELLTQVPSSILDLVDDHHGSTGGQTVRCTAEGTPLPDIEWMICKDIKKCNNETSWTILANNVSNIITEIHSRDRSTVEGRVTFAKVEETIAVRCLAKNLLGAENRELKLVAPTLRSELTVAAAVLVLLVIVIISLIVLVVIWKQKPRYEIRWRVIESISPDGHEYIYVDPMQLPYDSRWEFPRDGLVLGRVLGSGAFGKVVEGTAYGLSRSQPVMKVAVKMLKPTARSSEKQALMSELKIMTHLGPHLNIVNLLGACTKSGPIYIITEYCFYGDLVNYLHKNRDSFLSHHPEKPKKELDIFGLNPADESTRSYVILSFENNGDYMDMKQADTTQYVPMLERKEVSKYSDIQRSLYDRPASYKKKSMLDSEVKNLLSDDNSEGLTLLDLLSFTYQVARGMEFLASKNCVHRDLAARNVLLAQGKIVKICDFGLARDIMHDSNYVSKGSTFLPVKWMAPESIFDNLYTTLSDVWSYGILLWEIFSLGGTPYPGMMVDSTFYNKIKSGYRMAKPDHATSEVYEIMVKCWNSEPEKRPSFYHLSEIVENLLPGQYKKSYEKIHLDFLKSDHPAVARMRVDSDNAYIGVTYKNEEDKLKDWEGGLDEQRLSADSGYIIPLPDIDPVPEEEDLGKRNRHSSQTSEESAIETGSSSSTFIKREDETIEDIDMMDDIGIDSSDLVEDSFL

SNB-75 = assay: Cytotoxicity against human SNB75 cells; assay type: functional
BT-549 = assay: Cytotoxicity against human BT549 cells; assay type: functional
SR = assay: Cytotoxicity against human SR cells; assay type: functional
SW-620 = assay: Cytotoxicity against human SW620 cells; assay type: functional
SK-MEL-2 = assay: Cytotoxicity against human SK-MEL-2 cells; assay type: functional
MDA-MB-231 [5] = assay: Cytotoxicity against human MDA-MB-231 cells assessed as reduction of cell viability after 72 hrs by MTT assay; assay type: functional, cell-based; conditions: MDA-MB-231, 72 h
Histone deacetylase 2 = Histone deacetylase 2 (Homo sapiens, UniProt Q92769)
Histone deacetylase 2, sequence (Q92769 whole entry): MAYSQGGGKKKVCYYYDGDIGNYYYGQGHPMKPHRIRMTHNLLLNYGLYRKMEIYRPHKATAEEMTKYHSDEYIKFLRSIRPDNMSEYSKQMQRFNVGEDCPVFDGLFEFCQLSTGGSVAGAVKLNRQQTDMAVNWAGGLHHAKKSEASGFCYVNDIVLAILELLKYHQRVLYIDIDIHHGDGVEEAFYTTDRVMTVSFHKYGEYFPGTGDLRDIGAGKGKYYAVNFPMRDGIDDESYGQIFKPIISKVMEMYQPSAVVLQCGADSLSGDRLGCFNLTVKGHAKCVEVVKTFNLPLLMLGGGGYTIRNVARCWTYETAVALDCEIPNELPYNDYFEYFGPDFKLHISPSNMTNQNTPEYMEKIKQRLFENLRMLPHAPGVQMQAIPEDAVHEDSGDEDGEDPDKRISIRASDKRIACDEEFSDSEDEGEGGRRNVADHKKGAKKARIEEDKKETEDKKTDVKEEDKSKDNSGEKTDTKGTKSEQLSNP

NCI-H522 = assay: Cytotoxicity against human NCI-H522 cells; assay type: functional
NCI-H322M = assay: Cytotoxicity against human NCI-H322M cells; assay type: functional
Xenopus laevis [6] = species on record: Xenopus laevis; assay: Inhibition of angiogenesis in Xenopus laevis embryo heart assessed as decrease in Egfl7 mRNA level at 10 to 100 uM at stage 9 incubated for 72 hrs until stage 38 measured by WISH method; assay type: functional, organism-based
[7] = target: Vascular endothelial growth factor receptor 1 (Homo sapiens, UniProt P17948); assay: Inhibition of VEGFR1 (unknown origin); conditions: read-out: IC50
Vascular endothelial growth factor receptor 1, sequence (P17948 whole entry): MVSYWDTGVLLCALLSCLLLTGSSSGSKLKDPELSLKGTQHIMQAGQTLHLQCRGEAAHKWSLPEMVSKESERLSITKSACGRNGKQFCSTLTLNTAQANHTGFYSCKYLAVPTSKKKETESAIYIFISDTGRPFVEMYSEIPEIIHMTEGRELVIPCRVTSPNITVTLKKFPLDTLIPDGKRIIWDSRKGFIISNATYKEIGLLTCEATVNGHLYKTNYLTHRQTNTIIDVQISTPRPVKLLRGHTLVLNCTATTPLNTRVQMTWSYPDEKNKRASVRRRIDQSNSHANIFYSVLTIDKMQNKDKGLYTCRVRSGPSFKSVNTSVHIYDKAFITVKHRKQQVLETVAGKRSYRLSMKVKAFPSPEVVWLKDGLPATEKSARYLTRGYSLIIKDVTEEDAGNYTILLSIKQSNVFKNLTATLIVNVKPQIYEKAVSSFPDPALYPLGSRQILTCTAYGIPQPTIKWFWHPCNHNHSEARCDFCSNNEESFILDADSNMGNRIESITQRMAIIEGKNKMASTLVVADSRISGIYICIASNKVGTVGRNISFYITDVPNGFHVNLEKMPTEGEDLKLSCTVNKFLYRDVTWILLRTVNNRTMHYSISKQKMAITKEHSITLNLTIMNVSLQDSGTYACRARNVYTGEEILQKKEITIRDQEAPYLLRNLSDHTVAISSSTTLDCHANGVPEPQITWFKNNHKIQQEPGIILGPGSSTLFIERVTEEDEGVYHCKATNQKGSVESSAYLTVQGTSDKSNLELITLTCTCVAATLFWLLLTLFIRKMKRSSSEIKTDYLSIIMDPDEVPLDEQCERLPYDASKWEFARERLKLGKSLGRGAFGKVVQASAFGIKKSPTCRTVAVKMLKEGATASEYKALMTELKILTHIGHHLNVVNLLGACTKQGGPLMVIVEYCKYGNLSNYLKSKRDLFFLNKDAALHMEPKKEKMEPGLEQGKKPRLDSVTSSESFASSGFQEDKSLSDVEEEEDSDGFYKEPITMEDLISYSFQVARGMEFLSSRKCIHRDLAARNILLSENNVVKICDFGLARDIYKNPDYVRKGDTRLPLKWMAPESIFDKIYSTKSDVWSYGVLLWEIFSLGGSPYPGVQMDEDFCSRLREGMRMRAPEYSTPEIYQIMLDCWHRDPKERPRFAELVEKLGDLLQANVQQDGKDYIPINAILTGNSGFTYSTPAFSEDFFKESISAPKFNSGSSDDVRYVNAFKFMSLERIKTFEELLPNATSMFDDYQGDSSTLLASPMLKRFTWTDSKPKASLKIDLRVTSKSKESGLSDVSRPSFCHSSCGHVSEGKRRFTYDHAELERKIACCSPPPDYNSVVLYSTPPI

SK-MEL-5 = assay: Cytotoxicity against human SK-MEL-5 cells; assay type: functional
T47D = assay: Cytotoxicity against human T47D cells; assay type: functional
OVCAR-3 = assay: Cytotoxicity against human OVCAR3 cells; assay type: functional
SF-268 = assay: Cytotoxicity against human SF268 cells; assay type: functional
M14 = assay: Cytotoxicity against human M14 cells; assay type: functional
CAKI-1 = assay: Cytotoxicity against human Caki1 cells; assay type: functional
Xenopus laevis [8] = species on record: Xenopus laevis; assay: Inhibition of angiogenesis in Xenopus laevis embryo heart assessed as effect on Egfl7 expression in intersomitic vessels at 100 uM at stage 9 incubated for 72 hrs until stage 38 measured by WISH method; assay type: functional, organism-based; conditions: Intersomitic vessel
Histone deacetylase 5 = Histone deacetylase 5 (Homo sapiens, UniProt Q9UQL6); assay: Inhibition of HDAC5 (unknown origin); conditions: read-out: IC50
Histone deacetylase 5, sequence (Q9UQL6 whole entry): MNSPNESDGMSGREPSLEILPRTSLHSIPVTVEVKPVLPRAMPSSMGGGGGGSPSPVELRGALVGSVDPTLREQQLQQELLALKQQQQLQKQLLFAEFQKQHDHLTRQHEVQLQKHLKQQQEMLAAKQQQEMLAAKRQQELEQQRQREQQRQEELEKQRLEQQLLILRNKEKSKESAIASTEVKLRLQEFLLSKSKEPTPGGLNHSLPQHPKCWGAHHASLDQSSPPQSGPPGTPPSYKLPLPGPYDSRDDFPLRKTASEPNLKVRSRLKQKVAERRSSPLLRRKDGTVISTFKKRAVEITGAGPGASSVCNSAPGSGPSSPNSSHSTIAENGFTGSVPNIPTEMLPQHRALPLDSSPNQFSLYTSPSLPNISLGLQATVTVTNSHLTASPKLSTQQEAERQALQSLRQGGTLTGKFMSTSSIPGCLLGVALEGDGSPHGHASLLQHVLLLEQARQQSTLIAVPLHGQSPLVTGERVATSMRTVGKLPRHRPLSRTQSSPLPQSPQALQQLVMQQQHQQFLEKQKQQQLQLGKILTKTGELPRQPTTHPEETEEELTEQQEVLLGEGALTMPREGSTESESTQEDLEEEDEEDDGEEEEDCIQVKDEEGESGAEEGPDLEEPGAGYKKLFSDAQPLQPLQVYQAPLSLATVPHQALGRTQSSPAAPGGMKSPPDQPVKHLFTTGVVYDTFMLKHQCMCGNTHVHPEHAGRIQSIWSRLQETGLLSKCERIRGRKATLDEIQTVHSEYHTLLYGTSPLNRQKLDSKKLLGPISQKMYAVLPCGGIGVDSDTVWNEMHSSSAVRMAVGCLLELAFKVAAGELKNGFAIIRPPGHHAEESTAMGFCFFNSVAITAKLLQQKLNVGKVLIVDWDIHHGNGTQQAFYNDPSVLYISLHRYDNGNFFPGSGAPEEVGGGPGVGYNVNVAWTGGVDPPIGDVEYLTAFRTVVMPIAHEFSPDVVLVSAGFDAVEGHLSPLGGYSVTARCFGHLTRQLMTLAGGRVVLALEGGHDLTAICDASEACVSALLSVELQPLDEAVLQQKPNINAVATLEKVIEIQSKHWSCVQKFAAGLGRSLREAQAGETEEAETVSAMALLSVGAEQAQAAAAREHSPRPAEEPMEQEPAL

`O=C(CCCCCCC(=O)Nc1ccc2c(c1)/C(=C/c1ccc[nH]1)C(=O)N2)NO` showed a GI50 (SNB-19) of 644 nM, a GI50 (OVCAR-8) of 499 nM and a GI50 (A549) of 2900 nM. The GI50 (U-251) was 420 nM, the GI50 (DU-145) was 1020 nM and the GI50 (RXF 393) was 518 nM. The GI50 (IGROV-1) was 167 nM, the GI50 (NCI-H460) was 2740 nM and the IC50 (Histone deacetylase) was 117 nM. It also gave an IC50 [1] of 0.323 nM, an Activity (MDA-MB-231 [2]) of 30% and a GI50 (HCT-15) of 4590 nM. The GI50 (HOP-62) was 381 nM, the inhibition [3] was “inactive” and the GI50 (LOX IMVI) was 565 nM. It also gave an IC50 [4] of 1190 nM, a GI50 (SNB-75) of 194 nM and a GI50 (BT-549) of 1940 nM. The GI50 (SR) was 296 nM, the GI50 (SW-620) was 275 nM and the GI50 (SK-MEL-2) was 989 nM. It also gave an IC50 (MDA-MB-231 [5]) of 29000 nM, an IC50 (Histone deacetylase 2) of 1.11 nM and a GI50 (NCI-H522) of 87 nM. For the same compound, the GI50 (NCI-H322M) was 1020 nM, the inhibition (Xenopus laevis [6]) was “Active” and the IC50 [7] was 365 nM. The GI50 (SK-MEL-5) was 243 nM, the GI50 (T47D) was 45 nM and the GI50 (OVCAR-3) was 3600 nM. The GI50 (SF-268) was 1190 nM, the GI50 (M14) was 489 nM and the GI50 (CAKI-1) was 2330 nM. The inhibition (Xenopus laevis [8]) was “inactive” and the IC50 (Histone deacetylase 5) was 850 nM.
